# Results from ChEMBL document CHEMBL5055666, “Tyrosine-Derived Novel Benzoxazine Active in a Rat Syngenic Mammary Tumor Model of Breast Cancer” (J Med Chem, 2021).
# Active and inactive are the calls of the source. The rule behind the calls is not given here.
# Legend:
# [1] = system: MDA-MB-231; experiment: Induction of apoptosis in human MDA-MB-231 cells assessed as nuclear condensation after 24 hrs by DAPI staining based fluorescent microscopic analysis; assay type: functional, cell-based; settings: dose 0.125-1 µM
# [2] = system: MCF7; experiment: Antiproliferative activity against human MCF7 cells assessed as inhibition of cell growth incubated for 48 hrs by MTT assay; assay type: functional, cell-based; settings: MCF7, 48 h
# [3] = system: MCF7; experiment: Induction of apoptosis in human MCF7 cells assessed as nuclear condensation after 24 hrs by DAPI staining based fluorescent microscopic analysis; assay type: functional, cell-based; settings: dose 0.125-1 µM
# [4] = system: MCF7; experiment: Downregulation of ERalpha expression in human MCF7 cells after 24 hrs by immunoblot analysis; assay type: functional, cell-based
# [5] = Cmax in Sprague-Dawley rat at 5 mg/kg, po measured upto 24 hrs; assay type: ADME, organism-based; set-up: time < 24 hrs, dose 5 mg/kg, route po; settings: in vivo
# [6] = system: MCF-10A; experiment: Antiproliferative activity against human MCF-10A cells assessed as inhibition of cell growth incubated for 24 hrs by MTT assay; assay type: cell-based
# [7] = system: MCF7; experiment: Induction of cell damage in human MCF7 cells assessed as increase in LDH release at 0.125 to 100 uM; assay type: functional, cell-based; settings: dose 0.125-100 µM
# [8] = system: MDA-MB-231; experiment: Induction of intracellular ROS generation in human MDA-MB-231 cells at 0.125 to 1 uM incubated for 24 hrs by DCFH-DA staining-based flow cytometric analysis; assay type: functional, cell-based; settings: dose 0.125-1 µM
# [9] = Drug release in tris buffer pH 7.4 after 10 min by membrane dialysis method; assay type: physicochemical; settings: pH 7.4, 10 min
# [10] = system: MDA-MB-231; experiment: Induction of apoptosis in human MDA-MB-231 cells assessed as nuclear blabbing after 24 hrs by DAPI staining based fluorescent microscopic analysis; assay type: functional, cell-based; settings: dose 0.125-1 µM
# [11] = Induction of cell damage in human HEK293 cells assessed as increase in LDH release at > 20 uM; assay type: cell-based; settings: hek293, 20 µM
# [12] = system: MCF7; experiment: Antiproliferative activity against human MCF7 cells assessed as inhibition of cell growth incubated for 72 hrs by MTT assay; assay type: functional, cell-based; settings: MCF7, 72 h
# [13] = system: MDA-MB-231; experiment: Antiproliferative activity against human MDA-MB-231 cells assessed as inhibition of cell growth incubated for 48 hrs by MTT assay; assay type: functional, cell-based; settings: MDA-MB-231, 48 h
# [14] = Apparent oral volume of distribution in Sprague-Dawley rat at 5 mg/kg, po measured upto 24 hrs; assay type: ADME, organism-based; settings: in vivo
# [15] = Apparent oral clearance in Sprague-Dawley rat at 0.5 mg/kg, iv measured upto 24 hrs; assay type: ADME, organism-based; settings: in vivo
# [16] = AUC(0 to infinity) in Sprague-Dawley rat at 5 mg/kg, po measured upto 24 hrs; assay type: ADME, organism-based; set-up: dose 5 mg/kg, time < 24 hrs, route po; settings: in vivo
# [17] = system: MCF7; experiment: Induction of cell cycle arrest in human MCF7 cells assessed as increase in sub-diploid population at 0.125 to 1 uM after 24 to 48 hrs by propidium iodide staining based flow cytometric analysis; assay type: functional; settings: dose 0.125-1 µM, time 24-48 hrs
# [18] = system: MCF7; experiment: Antiproliferative activity against human MCF7 cells assessed as inhibition of cell growth incubated for 24 hrs by MTT assay; assay type: functional, cell-based; settings: MCF7, 24 h
# [19] = system: MDA-MB-231; experiment: Disruption of mitochondrial membrane integrity in human MDA-MB-231 cells assessed as reduction in mitochondrial membrane potential at 0.125 to 1 uM by JC-1 staining based flow cytometry analysis; assay type: functional, cell-based; settings: dose 0.125-1 µM
# [20] = Tmax in Sprague-Dawley rat at 0.5 mg/kg, iv measured upto 24 hrs; assay type: ADME, organism-based; settings: in vivo
# [21] = system: MCF7; experiment: Disruption of mitochondrial membrane integrity in human MCF7 cells assessed as reduction in mitochondrial membrane potential at 0.125 to 1 uM by JC-1 staining based flow cytometry analysis; assay type: functional, cell-based; settings: dose 0.125-1 µM
# [22] = system: LA7; experiment: Antiproliferative activity against rat LA7 cells assessed as inhibition of cell growth incubated for 24 hrs by MTT assay; assay type: functional, cell-based; settings: LA7, 24 h
# [23] = system: Rattus norvegicus; experiment: Toxicity in Sprague-Dawley rat inoculated with rat LA7 cells assessed as change in organ weight at 5 to 20 mg/kg administered daily for 21 days; assay type: organism-based; settings: la7, 504 h, dose 5-20 mg/kg, time 21 day
# [24] = Half life in Sprague-Dawley rat at 5 mg/kg, po measured upto 24 hrs; assay type: ADME, organism-based; settings: in vivo
# [25] = Half life in Sprague-Dawley rat at 0.5 mg/kg, iv measured upto 24 hrs; assay type: ADME, organism-based; settings: in vivo
# [26] = system: MDA-MB-231; experiment: Induction of cell damage in human MDA-MB-231 cells assessed as increase in LDH release at 0.125 to 100 uM; assay type: functional, cell-based; settings: dose 0.125-100 µM
# [27] = system: LA7; experiment: Antiproliferative activity against rat LA7 cells assessed as inhibition of cell growth incubated for 48 hrs by MTT assay; assay type: functional, cell-based; settings: LA7, 48 h
# [28] = AUC(0 to infinity) in Sprague-Dawley rat at 0.5 mg/kg, iv measured upto 24 hrs; assay type: ADME, organism-based; set-up: time < 24 hrs, dose 0.5 mg/kg, route iv; settings: in vivo
# [29] = system: MDA-MB-231; experiment: Induction of cell cycle arrest in human MDA-MB-231 cells assessed as increase in sub-diploid population at 0.125 to 1 uM after 24 to 48 hrs by propidium iodide staining based flow cytometric analysis; assay type: functional; settings: dose 0.125-1 µM, time 24-48 hrs
# [30] = system: MCF7; experiment: Induction of apoptosis in human MCF7 cells assessed as increase in total apoptotic population at 0.125 to 1 uM after 24 to 48 hrs by Annexin V-FITC/propidium iodide staining based flow cytometric analysis; assay type: functional, cell-based; settings: dose 0.125-1 µM, time 24-48 hrs
# [31] = system: LA7; experiment: Antitumor activity against rat LA7 cells inoculated in Sprague-Dawley rat assessed as reduction in formation of neoplastic lesions in lungs at 5 to 20 mg/kg administered daily for 21 days; assay type: functional, organism-based; settings: dose 5-20 mg/kg, time 21.0 day
# [32] = system: MCF7; experiment: Induction of intracellular ROS generation in human MCF7 cells at 0.125 to 1 uM incubated for 24 hrs by DCFH-DA staining-based flow cytometric analysis; assay type: functional, cell-based; settings: dose 0.125-1 µM
# [33] = system: Rattus norvegicus; experiment: Toxicity in Sprague-Dawley rat inoculated with rat LA7 cells assessed as mortality at 5 to 20 mg/kg administered daily for 21 days; assay type: organism-based; settings: la7, 504 h, dose 5-20 mg/kg, time 21 day
# [34] = system: MDA-MB-231; experiment: Antiproliferative activity against human MDA-MB-231 cells assessed as inhibition of cell growth incubated for 24 hrs by MTT assay; assay type: functional, cell-based; settings: MDA-MB-231, 24 h
# [35] = system: LA7; experiment: Antitumor activity against rat LA7 cells inoculated in Sprague-Dawley rat assessed as inhibition of tumor growth at 5 to 20 mg/kg administered daily for 21 days; assay type: functional, organism-based; settings: dose 5-20 mg/kg, time 21.0 day
# [36] = system: LA7; experiment: Antiproliferative activity against rat LA7 cells assessed as inhibition of cell growth incubated for 72 hrs by MTT assay; assay type: functional, cell-based; settings: LA7, 72 h
# [37] = system: MCF-10A; experiment: Antiproliferative activity against human MCF-10A cells assessed as inhibition of cell growth incubated for 72 hrs by MTT assay; assay type: cell-based
# [38] = Apparent oral clearance in Sprague-Dawley rat at 5 mg/kg, po measured upto 24 hrs; assay type: ADME, organism-based; settings: in vivo
# [39] = Mean residence time in Sprague-Dawley rat at 0.5 mg/kg, iv measured upto 24 hrs; assay type: ADME, organism-based; settings: in vivo
# [40] = Tmax in Sprague-Dawley rat at 5 mg/kg, po measured upto 24 hrs; assay type: ADME, organism-based; settings: in vivo
# [41] = system: MDA-MB-231; experiment: Antiproliferative activity against human MDA-MB-231 cells assessed as inhibition of cell growth incubated for 72 hrs by MTT assay; assay type: functional, cell-based; settings: MDA-MB-231, 72 h
# [42] = system: MCF7; experiment: Upregulation of ERbeta expression in human MCF7 cells after 24 hrs by immunoblot analysis; assay type: functional, cell-based; settings: dose 500-5 µM
# [43] = system: MDA-MB-231; experiment: Induction of apoptosis in human MDA-MB-231 cells assessed as increase in total apoptotic population at 0.125 to 1 uM after 24 to 48 hrs by Annexin V-FITC/propidium iodide staining based flow cytometric analysis; assay type: functional, cell-based; settings: dose 0.125-1 µM, time 24-48 hrs
# [44] = Mean residence time in Sprague-Dawley rat at 5 mg/kg, po measured upto 24 hrs; assay type: ADME, organism-based; settings: in vivo
# [45] = Cmax in Sprague-Dawley rat at 0.5 mg/kg, iv measured upto 24 hrs; assay type: ADME, organism-based; set-up: time < 24 hrs, dose 0.5 mg/kg, route iv; settings: in vivo
# [46] = Apparent oral volume of distribution in Sprague-Dawley rat at 0.5 mg/kg, iv measured upto 24 hrs; assay type: ADME, organism-based; settings: in vivo
# [47] = system: Rattus norvegicus; experiment: Toxicity in Sprague-Dawley rat inoculated with rat LA7 cells assessed as increase in uterine tissue at 5 to 20 mg/kg administered daily for 21 days; assay type: organism-based; settings: la7, 504 h, dose 5-20 mg/kg, time 21 day
# [48] = system: MCF7; experiment: Induction of apoptosis in human MCF7 cells assessed as nuclear blabbing after 24 hrs by DAPI staining based fluorescent microscopic analysis; assay type: functional, cell-based; settings: dose 0.125-1 µM
smiles,measurement,setting,value
COc1ccc(C[C@H]2COc3ccccc3N2Cc2ccc(OCCN3CCCC3)cc2)cc1,Activity,[1],Dose-dependent effect
same,IC50,[2],300 nM
same,Activity,[3],Dose-dependent effect
same,Activity,[4],Dose-dependent effect
same,Cmax,[5],43.2 ng/mL
same,IC50,[6],> 25 µM
same,Activity,[7],Active
same,Activity,[8],Active
same,Drug transport,[9],90%
same,Activity,[10],Dose-dependent effect
same,Activity,[11],Toxic
same,IC50,[12],250 nM
same,IC50,[13],700 nM
same,Vd/F,[14],140 L/kg
same,CL/F,[15],68.8 mL/min/kg
same,AUC(0-inf),[16],506 ng·h/mL
same,Activity,[17],Dose-dependent effect
same,IC50,[18],200 nM
same,Activity,[19],Active
same,Tmax,[20],49.8 min
same,Activity,[21],Active
same,IC50,[22],660 nM
same,Activity,[23],Non-Toxic
same,half-life,[24],538 min
same,half-life,[25],205 min
same,Activity,[26],Active
same,IC50,[27],240 nM
same,AUC(0-inf),[28],124 ng·h/mL
same,Activity,[29],Dose-dependent effect
same,Activity,[30],Active
same,Activity,[31],Active
same,Activity,[32],Active
same,Activity,[33],Non-Toxic
same,IC50,[34],650 nM
same,Activity,[35],Active
same,IC50,[36],190 nM
same,IC50,[37],> 18 µM
same,CL/F,[38],176 mL/min/kg
same,MRT,[39],4.66 h
same,Tmax,[40],15 min
same,IC50,[41],700 nM
same,Activity,[42],Dose-dependent effect
same,Activity,[43],Active
same,MRT,[44],16.1 h
same,Cmax,[45],49.6 ng/mL
same,Vd/F,[46],19.9 L/kg
same,Activity,[47],Non-Toxic
same,Activity,[48],Dose-dependent effect
